Source: patent publication US12059422B2 (MEI Pharma, Inc., priority 2011, dated 2024)

Tests used:
[1] = target: T1, PI3K alpha (Homo sapiens, UniProt P42336); assay: Luciferase-based luminescence assay (KinaseGlo), PI3K alpha enzymatic activity; format: biochemical; details: inhibition of enzymatic activity, 25 μM ATP, read-out: IC50 p110α
T1 construct: purchased Invitrogen Corp., Carlsbad, CA, USA
Procedure: (§1) PI3K catalyzes the conversion of phosphatidylinositol-4,5-bisphosphate (PIP2) and ATP to phosphatidylinositol-3,4,5-trisphosphate (PIP3) and ADP. For all assays, the reaction buffer comprised 50 mM HEPES, pH 7.5, 3 mM MgCl2, 1 mM EGTA, 100 mM NaCl, 0.03% CHAPS and 2 mM DTT. Compounds for testing were dissolved and serially diluted in 100% DMSO (total of 10 concentrations), then diluted 1:25 in reaction buffer.
(§2) PI3K alpha and PI3K delta enzymatic activity was determined by measuring the amount of ATP consumed following the kinase reaction using a luciferase-based luminescence assay (KinaseGlo®, Promega Corp., Madison, WI, USA). PI3K enzyme solutions were prepared by diluting PI3K alpha (Invitrogen Corp., Carlsbad, CA, USA) or PI3K delta (Millipore, Billerica, MA, USA) in reaction buffer, to 4× the final assay concentration (final concentrations of enzymes were 1.65 nM and 6.86 nM for PI3K alpha and PI3K delta, respectively). A substrate solution was prepared by mixing PIP2 and ATP in reaction buffer at 2× the final assay concentration (final concentrations were 50 μM and 25 μM for PIP2 and ATP respectively). 2.5 μL each of the compound and kinase mixtures were added to individual wells of white low volume 384-well assay plates and mixed by shaking. The reactions were started by adding 5 μL of substrate mixture per well and shaking. The assay plates were covered and reactions were allowed to proceed for 1 hour (PI3K alpha) or 2 hours (PI3K delta), after which 10 μL of Kinase Glo® reagent was added. The plates were briefly centrifuged and incubated for 10 minutes, after which luminescence was measured using a FlexStation plate reader (Molecular Devices, Sunnyvale, CA, USA). IC50 values were determined by curve fitting using Graphpad Prism software (Graphpad Software, La Jolla, CA, USA).

[2] = target: T2, PI3K gamma (Homo sapiens, UniProt P48736); assay: Luciferase-based luminescence assay (ADP Glo), PI3K gamma enzymatic activity; format: biochemical; details: inhibition of enzymatic activity, 25 μM ATP, read-out: IC50 p110γ
T2 construct: purchased Invitrogen Corp., Carlsbad, CA, USA
Procedure: as §1
(§3) PI3K beta and gamma enzymatic activity was determined by measuring the amount of ADP produced following the kinase reaction using a luciferase-based luminescence assay (ADP Glo®, Promega Corp., Madison, WI, USA). PI3K enzyme solutions were prepared by diluting PI3K beta (Millipore, Billerica, MA, USA) or PI3K gamma (Invitrogen Corp., Carlsbad, CA, USA) in reaction buffer, to 4× the final assay concentration (final concentrations of enzymes were 4.8 nM and 7.6 nM for PI3K beta and PI3K gamma respectively). A substrate solution was prepared by mixing PIP2 and ATP in reaction buffer at 2× the final assay concentration (final concentrations were 50 μM and 25 μM for PIP2 and ATP respectively). 2.5 μL each of the compound and kinase mixtures were added to individual wells of white low volume 384-well assay plates and mixed by shaking. The reactions were started by adding 5 μL of substrate mixture per well and shaking. The assay plates were covered and reactions were allowed to proceed for 1 hour. Then, 5 μL of reaction mix was transferred to another white low volume 384-well plate, and 5 μL of ADP-Glo™ reagent was added. The plates were briefly centrifuged and incubated for 40 minutes, after which 10 μL of kinase detection buffer was added. The plates then were centrifuged briefly, shaken slowly and equilibrated at room temperature for 30 minutes, after which luminescence was measured using a FlexStation plate reader (Molecular Devices, Sunnyvale, CA, USA). IC50 values were determined by curve fitting using Graphpad Prism software (Graphpad Software, La Jolla, CA, USA).

[3] = target: mTOR (Homo sapiens, UniProt P42345); assay: mTOR inhibition (Table 1); format: biochemical; details: Table 1, no method described
[4] = target: T3, PI3K beta (Homo sapiens, UniProt P42338); assay: Luciferase-based luminescence assay (ADP Glo), PI3K beta enzymatic activity; format: biochemical; details: for IC50: inhibition of enzymatic activity, ADP Glo, 25 μM ATP, read-out: IC50 p110β; for α/β ratio: ratio of enzymatic IC50 values, Table 1
T3 construct: purchased Millipore, Billerica, MA, USA
T3 sequence (P42338 whole entry, species assumed): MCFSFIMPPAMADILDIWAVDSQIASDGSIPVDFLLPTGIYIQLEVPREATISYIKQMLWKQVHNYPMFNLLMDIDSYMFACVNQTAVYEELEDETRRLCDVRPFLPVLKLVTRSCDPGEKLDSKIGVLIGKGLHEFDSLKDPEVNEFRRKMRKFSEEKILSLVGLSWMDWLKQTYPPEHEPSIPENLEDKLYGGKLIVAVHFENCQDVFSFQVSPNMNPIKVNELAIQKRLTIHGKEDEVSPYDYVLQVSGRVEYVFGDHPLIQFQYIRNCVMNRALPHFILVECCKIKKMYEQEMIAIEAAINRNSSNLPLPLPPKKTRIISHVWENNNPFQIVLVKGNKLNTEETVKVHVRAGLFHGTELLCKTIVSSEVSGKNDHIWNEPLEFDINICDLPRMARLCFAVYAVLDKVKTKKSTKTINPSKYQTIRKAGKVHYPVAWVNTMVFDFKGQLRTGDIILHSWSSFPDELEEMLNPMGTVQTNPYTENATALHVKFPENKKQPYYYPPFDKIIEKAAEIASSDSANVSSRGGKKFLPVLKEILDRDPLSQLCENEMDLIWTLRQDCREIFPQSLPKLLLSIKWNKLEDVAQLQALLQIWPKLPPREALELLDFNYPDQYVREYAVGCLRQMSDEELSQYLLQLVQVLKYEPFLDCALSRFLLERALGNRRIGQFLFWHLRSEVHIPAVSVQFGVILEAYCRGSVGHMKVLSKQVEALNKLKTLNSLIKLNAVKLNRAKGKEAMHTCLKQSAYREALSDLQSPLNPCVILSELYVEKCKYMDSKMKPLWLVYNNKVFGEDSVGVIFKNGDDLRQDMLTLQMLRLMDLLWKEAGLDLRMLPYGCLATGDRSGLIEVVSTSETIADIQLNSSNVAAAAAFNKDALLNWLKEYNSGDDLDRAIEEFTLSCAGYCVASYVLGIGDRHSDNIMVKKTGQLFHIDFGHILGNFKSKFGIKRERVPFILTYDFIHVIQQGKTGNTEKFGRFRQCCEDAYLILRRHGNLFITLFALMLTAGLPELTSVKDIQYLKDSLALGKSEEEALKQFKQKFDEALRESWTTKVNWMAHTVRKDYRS
T3 sequence (P27986 whole entry partner, species assumed): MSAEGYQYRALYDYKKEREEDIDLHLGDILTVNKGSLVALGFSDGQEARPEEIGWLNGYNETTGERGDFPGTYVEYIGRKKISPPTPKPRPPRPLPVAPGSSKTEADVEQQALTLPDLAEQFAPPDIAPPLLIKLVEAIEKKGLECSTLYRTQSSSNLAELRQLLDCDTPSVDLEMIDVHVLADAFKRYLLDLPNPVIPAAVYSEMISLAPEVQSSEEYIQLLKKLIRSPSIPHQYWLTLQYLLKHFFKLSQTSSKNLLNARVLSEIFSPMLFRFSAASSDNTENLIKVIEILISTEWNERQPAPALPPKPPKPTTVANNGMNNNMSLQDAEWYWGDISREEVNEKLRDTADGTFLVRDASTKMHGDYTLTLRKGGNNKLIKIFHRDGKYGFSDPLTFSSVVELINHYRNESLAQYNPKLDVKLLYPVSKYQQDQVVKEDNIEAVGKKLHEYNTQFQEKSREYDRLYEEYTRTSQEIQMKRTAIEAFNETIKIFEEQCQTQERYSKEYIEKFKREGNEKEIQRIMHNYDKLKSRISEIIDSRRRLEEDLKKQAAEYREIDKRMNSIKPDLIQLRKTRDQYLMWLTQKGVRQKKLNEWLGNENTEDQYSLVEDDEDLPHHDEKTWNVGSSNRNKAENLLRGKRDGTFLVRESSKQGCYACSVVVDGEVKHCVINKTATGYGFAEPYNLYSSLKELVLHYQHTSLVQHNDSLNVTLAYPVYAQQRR
Procedure: as §1, §3

[5] = target: T4, PI3Kδ (Homo sapiens, UniProt O00329); assay: ELISA assay for PI3Kδ: sandwich ELISA, phosphorylation of AKT (Thr308) in Raji cells; format: cell-based; details: cellular, pAKT (Thr308), Raji cells, anti-Human IgM stimulation; read-out: IC50 p110δ
T4 construct: endogenous in cells; host or cells: Raji (ATCC #CCL-86)
T4 sequence (O00329 whole entry): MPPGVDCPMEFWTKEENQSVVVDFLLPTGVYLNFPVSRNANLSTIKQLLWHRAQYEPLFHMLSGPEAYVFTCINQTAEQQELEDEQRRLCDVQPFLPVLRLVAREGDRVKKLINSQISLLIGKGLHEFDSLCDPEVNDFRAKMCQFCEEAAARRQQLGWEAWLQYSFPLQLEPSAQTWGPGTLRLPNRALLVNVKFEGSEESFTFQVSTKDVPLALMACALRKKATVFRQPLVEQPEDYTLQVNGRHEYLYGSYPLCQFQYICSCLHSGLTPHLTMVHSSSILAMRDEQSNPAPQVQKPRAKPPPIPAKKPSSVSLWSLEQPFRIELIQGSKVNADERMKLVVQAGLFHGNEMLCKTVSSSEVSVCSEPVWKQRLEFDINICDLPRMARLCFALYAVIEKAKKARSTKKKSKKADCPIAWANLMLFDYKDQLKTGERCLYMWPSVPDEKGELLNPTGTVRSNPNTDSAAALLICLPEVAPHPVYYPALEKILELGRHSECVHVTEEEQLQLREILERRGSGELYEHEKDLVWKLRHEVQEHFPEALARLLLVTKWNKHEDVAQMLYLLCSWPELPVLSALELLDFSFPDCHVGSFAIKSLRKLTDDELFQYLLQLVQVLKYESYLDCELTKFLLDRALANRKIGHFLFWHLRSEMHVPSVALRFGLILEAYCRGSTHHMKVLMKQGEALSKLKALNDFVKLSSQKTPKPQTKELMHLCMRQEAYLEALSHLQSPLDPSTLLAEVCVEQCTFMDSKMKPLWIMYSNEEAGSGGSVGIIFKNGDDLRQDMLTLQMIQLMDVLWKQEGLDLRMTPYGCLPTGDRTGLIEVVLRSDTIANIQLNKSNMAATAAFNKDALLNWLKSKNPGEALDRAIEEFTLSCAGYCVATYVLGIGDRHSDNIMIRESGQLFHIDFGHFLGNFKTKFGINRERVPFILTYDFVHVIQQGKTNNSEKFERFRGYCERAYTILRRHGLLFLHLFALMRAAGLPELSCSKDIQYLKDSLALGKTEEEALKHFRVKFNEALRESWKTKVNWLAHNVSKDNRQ
T4 sequence (P27986 whole entry partner): as the sequence (P27986 whole entry partner, species assumed) above
Procedure: Cellular PI3Kδ activity was determined by measuring the phosphorylation of AKT (Thr308) using a sandwich enzyme-linked immunosorbant assay (ELISA). Raji (Burkitt's Lymphoma) cells were obtained from ATCC (ATCC #CCL-86). Phosphate buffer saline (PBS) contained 2.7 M NaCl, 54 mM KCl, 86 mM […] (dibasic, anhydrous), and 28 mM […] (monobasic, anhydrous) at pH 7.2. Wash buffer contained PBS supplemented with 0.05% Tween-20. Blocking buffer contained wash buffer supplemented with 1% BSA. A 10× stimulation mixture contained 5 μg/mL anti-Human IgM antibody (Sigma #12386) diluted in serum-free RPMI medium (CellGro #CV-10-040-CV). Compounds for testing were dissolved and serially diluted in 100% DMSO (total of 10 concentrations), and then diluted in serum-free RPMI to 5×final assay concentration.
Raji cells were subcultured in RPMI medium supplemented with 10% fetal bovine serum, 100 IU/mL penicillin, 100 μg/mL streptomycin, and 1×MEM non-essential amino acids. Sandwich ELISA plates were prepared by coating 96-well assay plates (Pierce #15042) with 100 μL/well capture antibody (Cell Signaling Technology #7142 or 7144) diluted in PBS. Plates were incubated overnight at 4° C., then washed with wash buffer, after which 200 μL/well blocking buffer was added to the plates and incubated at room temperature for at least 2 hrs. Raji cells were resuspended in serum-free RPMI medium and seeded into V-bottom, 2-mL 96-well blocks (Corning #3961) at 10^6 cells/well, then incubated for 2 hrs in a 37° C., 5% CO2 incubator. Compound treatment was performed by adding the 5× compound mixture to the cells and incubating for 2 hrs at 37° C., 5% CO2, after which the 10× stimulation mixture was added to the plates and incubated for 30 min at 37° C., 5% CO2. Cells were pelleted by centrifuging plates at 1500 RPM for 5 min at room temperature. Media was carefully removed and cells were lysed by adding 100 μL/well cell lysis buffer (Cell Signaling Technology #9803) supplemented with protease and phosphatase inhibitors (Thermo Fisher #78443). Plates were incubated on ice for 30 min, then the lysates (80 μL for pAKT^T308, 10 μL for total AKT) were transferred to prepared assay plates and incubated at 4° C. overnight. After washing plates with wash buffer, 100 μL/well detection antibody (Cell Signaling Technology #7142 or 7144) diluted in blocking buffer was added to the plates and incubated for 1 hr at 37° C. Plates were washed and 100 μL/well of HRP-conjugated secondary antibody (Cell Signaling Technology #7142 or 7144) diluted in blocking buffer was added to plates and incubated for 1 hr at room temperature. Plates were washed with wash buffer and 100 μL/well of luminescent substrate was added to plates. After 1 min on a plate shaker at medium speed, luminescence was read on a Wallac Victor2 plate reader. IC50 values were determined by curve fitting using a Collaborative Drug Discovery database (www.collaborativedrug.com).

[6] = target: T5, PI3K delta (Homo sapiens, UniProt O00329); assay: Luciferase-based luminescence assay (KinaseGlo), PI3K delta enzymatic activity; format: biochemical; details: for IC50: inhibition of enzymatic activity, KinaseGlo, 25 μM ATP, read-out: IC50 p110δ; for α/δ ratio: ratio of enzymatic IC50 against PI3Kα over IC50 against PI3Kδ; for β/δ ratio / γ/δ ratio: ratio of enzymatic IC50 values, Table 1
T5 construct: purchased Millipore, Billerica, MA, USA
T5 sequence (O00329 whole entry, species assumed): as the sequence (O00329 whole entry) above
T5 sequence (P27986 whole entry partner, species assumed): as the sequence (P27986 whole entry partner, species assumed) above
Procedure: as §1, §2

T1 sequence (P42336 whole entry, species assumed): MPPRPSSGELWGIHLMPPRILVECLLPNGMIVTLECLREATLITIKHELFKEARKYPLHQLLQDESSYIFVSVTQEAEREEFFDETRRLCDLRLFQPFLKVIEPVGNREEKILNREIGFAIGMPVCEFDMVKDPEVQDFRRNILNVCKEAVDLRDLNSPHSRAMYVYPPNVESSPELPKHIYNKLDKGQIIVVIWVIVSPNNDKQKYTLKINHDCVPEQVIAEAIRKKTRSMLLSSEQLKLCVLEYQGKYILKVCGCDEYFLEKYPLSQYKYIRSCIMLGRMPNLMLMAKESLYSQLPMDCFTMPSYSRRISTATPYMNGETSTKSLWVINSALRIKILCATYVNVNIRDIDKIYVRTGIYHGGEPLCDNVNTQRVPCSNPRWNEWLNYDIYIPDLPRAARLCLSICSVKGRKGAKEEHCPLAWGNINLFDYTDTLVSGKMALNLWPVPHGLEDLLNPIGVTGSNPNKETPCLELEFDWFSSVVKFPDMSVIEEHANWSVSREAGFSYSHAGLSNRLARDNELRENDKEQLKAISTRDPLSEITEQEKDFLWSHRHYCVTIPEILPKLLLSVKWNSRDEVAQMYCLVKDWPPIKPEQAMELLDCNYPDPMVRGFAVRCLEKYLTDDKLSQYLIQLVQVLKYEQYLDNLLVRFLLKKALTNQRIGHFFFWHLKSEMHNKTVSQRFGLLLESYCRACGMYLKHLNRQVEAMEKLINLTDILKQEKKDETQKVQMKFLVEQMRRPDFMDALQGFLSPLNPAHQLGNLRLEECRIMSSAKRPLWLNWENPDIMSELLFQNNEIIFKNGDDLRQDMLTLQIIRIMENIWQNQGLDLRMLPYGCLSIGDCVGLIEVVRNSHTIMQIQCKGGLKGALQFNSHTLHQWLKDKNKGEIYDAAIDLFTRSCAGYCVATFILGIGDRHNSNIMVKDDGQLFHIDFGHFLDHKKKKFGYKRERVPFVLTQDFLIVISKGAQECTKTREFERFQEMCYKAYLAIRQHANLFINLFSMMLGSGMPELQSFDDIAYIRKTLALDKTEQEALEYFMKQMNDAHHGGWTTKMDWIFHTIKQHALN
T1 sequence (P27986 whole entry partner, species assumed): as the sequence (P27986 whole entry partner, species assumed) above

## CC(C)(Cc1ccc(Cl)cc1)Nc1nc(N2CCOCC2)nc(-n2c(C(F)F)nc3ccccc32)n1 [Compound A23, N-(1-(4-chlorophenyl)-2-methylpropan-2-yl)-4-(2-(difluoromethyl)-1H-benzo[d]imidazol-1-yl)-6-morpholino-1,3,5-triazin-2-amine]
[1]
  IC50: > 500 nM
[2]
  IC50: 200 to 500 nM
[3]
  IC50: > 500 nM
[4]
  IC50: 200 to 500 nM
  α/β ratio: D’
[5]
  IC50: ≤ 100 nM
[6]
  IC50: ≤ 100 nM
  α/δ ratio: B’
  β/δ ratio: D’
  γ/δ ratio: C’

## CC(C)(Cc1ccc(Br)cc1)Nc1nc(N2CCOCC2)nc(-n2c(C(F)F)nc3ccccc32)n1 [Compound A24, N-(1-(4-bromophenyl)-2-methylpropan-2-yl)-4-(2-(difluoromethyl)-1H-benzo[d]imidazol-1-yl)-6-morpholino-1,3,5-triazin-2-amine]
[1]
  IC50: > 500 nM
[2]
  IC50: 200 to 500 nM
[3]
  IC50: > 500 nM
[4]
  IC50: > 500 nM
  α/β ratio: D’
[5]
  IC50: ≤ 100 nM
[6]
  IC50: 100 to 200 nM
  α/δ ratio: D’
  β/δ ratio: C’
  γ/δ ratio: D’

## COc1ccc(CC(C)(C)Nc2nc(N3CCOCC3)nc(-n3c(C(F)F)nc4ccccc43)n2)cc1 [Compound A25, 4-(2-(difluoromethyl)-1H-benzo[d]imidazol-1-yl)-N-(1-(4-methoxyphenyl)-2-methylpropan-2-yl)-6-morpholino-1,3,5-triazin-2-amine]
[1]
  IC50: > 500 nM
[2]
  IC50: > 500 nM
[3]
  IC50: > 500 nM
[4]
  IC50: > 500 nM
  α/β ratio: D’
[5]
  IC50: ≤ 100 nM
[6]
  IC50: 200 to 500 nM
  α/δ ratio: D’
  β/δ ratio: A’
  γ/δ ratio: D’

## CC(C)(Cc1ccccc1-c1ccccc1)Nc1nc(N2CCOCC2)nc(-n2c(C(F)F)nc3ccccc32)n1 [Compound A47, 4-(2-(difluoromethyl)-1H-benzo[d]imidazol-1-yl)-N-(1-(biphenyl-2-yl)-2-methylpropan-2-yl)-6-morpholino-1,3,5-triazin-2-amine]
[1]
  IC50: 200 to 500 nM
[2]
  IC50: > 500 nM
[3]
  IC50: > 500 nM
[4]
  IC50: 100 to 200 nM
  α/β ratio: D’
[6]
  IC50: ≤ 100 nM
  α/δ ratio: A’
  β/δ ratio: B’
  γ/δ ratio: A’
